Data as given in US20240010653A1, “Crystalline Forms of 4-amino-N-[4-(methoxymethyl)phenyl]-7-(1-methylcyclopropyl)-6-(3-morpholinoprop-1-yn-1-yl)-7H-pyrrolo[2,3-d]pyrimidine-5-carboxamide” (Helsinn Healthcare SA, priority 2020, published 2024).
Counter-ions that a name gives are not always drawn.

Legend:
Format in all cases: physicochemical
[1] = Solid form (polymorph) stability on storage, followed by XRPD; settings: for Form stability (XRPD) after storage in a sealed vial: seven days in a sealed vial
Procedure: The stability of Form 4-bis was assessed after seven days of storage in a sealed vial.
HM06 1:2 HCl Form 4 exposed powder was stored overnight at room temperature under 43% RH.
The stability of the HM06 1:2 HCl Form 5-bis sample was assessed after 18 hours exposed to air and after one week in a sealed vial, both at room temperature.
Form 5-bis was measured after 18 hours exposed powder at room temperature. The % RH was approx. of 45%.
These changes could not be associated with conversion into one of the other isolated polymorphs observed during this study: thus, the sample was considered not stable.
HM06 1:2 HCl Form 5-bis was measured after seven days at room temperature in a sealed vial.
Form 6 was collected after evaporation of HM06 1:2 HCl Form 1 in a 1:1 acetonitrile/water solution at room temperature under low pressure.

[2] = Uptake of water from air by dehydrated form, followed by VP-XRPD; settings: after vacuum 0.07 mbar; ambient condition, RH about 80%
Procedure: VP-XRPD measurements were performed on the Panalytical X'pert equipped with the Anton Paar TTK450 chamber which allowed for measurement of the powder in-situ at controlled temperature and/or under vacuum.
The first measurement was collected at RT and atmospheric pressure. The sample was then left for 15 minutes under vacuum (0.07 mbar).
The uptake of water by Form 1-bis was observed via XRPD by following the difference in the pattern in the range 2θ=25.5°-27-5° (see FIG. 5C). Under vacuum the highest peak is the peak at 2θ=26.7° while after exposure of the sample in air 2 minutes the highest is at 2θ=26.4°. The peak at 2θ=26.4° moves to 2θ=26.2° in 20 minutes. HM06 1:2 HCl crystalline Form 1-bis uptakes the water from the atmosphere as soon as the powder is exposed to the air, and it reaches the diffraction pattern of the starting material in 20 minutes (see […] 5D). This experiment was done in ambient condition with RH % of the room about at 80%.

[3] = Storage stability, accelerated conditions 40° C./75% relative humidity; settings: for HPLC assay (anhydrous) / HPLC purity: 12-HM06 / HPLC purity: impurity 12-HM06.il (RRT 0.92-.94) / HPLC purity: impurity RRT 0.56 / HPLC purity: impurity RRT 1.11 / HPLC purity: impurity RRT 1.20-1.24 / HPLC purity: impurity RRT 1.41-1.42 / Water content (KF) / XRPD: 40° C./75% relative humidity
Procedure: (§1) Samples of HM06 1:2 HCl Form 1 were subjected to accelerated storage conditions and long-term storage.
Samples of HM06 1:2 HCl Form 1 from the same lot were stored at 40° C. and 75% relative humidity for 24 months with testing at regular intervals.

[4] = Saturated solution in methanol; settings: room temperature
Procedure: A saturated solution of HM06 1:2 HCl Form 1 in methanol approx. 50 mg/mL was prepared and allowed to stir at room temperature overnight (18 hours). After this time, it was filtered and left to evaporate at 25° C./700 mbar. The preparation of the sample plate sealed with Kapton film was performed under 40-45% RH. Some very minor signals of Form 1 were present.

[5] = Storage stability, long term conditions 25° C. and 60% relative humidity
Text: as §1
Table 25 sets forth the sample analysis at times 0, 3 months, 6 months, 9 months, 12 months, 18 months, and 24 months.

COCc1ccc(NC(=O)c2c(C#CCN3CCOCC3)n(C3(C)CC3)c3ncnc(N)c23)cc1 [HM06 1:2 HCl Form 4, 4-amino-N-[4-(methoxymethyl)phenyl]-7-(1-methylcyclopropyl)-6-(3-morpholinoprop-1-yn-1-yl)-7H-pyrrolo[2,3-d]pyrimidine-5-carboxamide]
Form stability (XRPD) of exposed powder ([1]; stored overnight at room temperature under 43% RH): No significant modifications

COCc1ccc(NC(=O)c2c(C#CCN3CCOCC3)n(C3(C)CC3)c3ncnc(N)c23)cc1 [HM06 1:2 HCl Form 5-bis, 4-amino-N-[4-(methoxymethyl)phenyl]-7-(1-methylcyclopropyl)-6-(3-morpholinoprop-1-yn-1-yl)-7H-pyrrolo[2,3-d]pyrimidine-5-carboxamide]
Form stability (XRPD) of exposed powder ([1]; 18 hours exposed to air at room temperature, approx. 45% RH): not stable
Form stability (XRPD) after storage in a sealed vial [1]: started to convert into Form 1

COCc1ccc(NC(=O)c2c(C#CCN3CCOCC3)n(C3(C)CC3)c3ncnc(N)c23)cc1 [HM06 1:2 HCl Form 1-bis, 4-amino-N-[4-(methoxymethyl)phenyl]-7-(1-methylcyclopropyl)-6-(3-morpholinoprop-1-yn-1-yl)-7H-pyrrolo[2,3-d]pyrimidine-5-carboxamide]
Time in air to reach the diffraction pattern of the starting material (Form 1) by uptake of water [2]: 20 min

COCc1ccc(NC(=O)c2c(C#CCN3CCOCC3)n(C3(C)CC3)c3ncnc(N)c23)cc1 [HM06 1:2 HCl Form 4-bis, 4-amino-N-[4-(methoxymethyl)phenyl]-7-(1-methylcyclopropyl)-6-(3-morpholinoprop-1-yn-1-yl)-7H-pyrrolo[2,3-d]pyrimidine-5-carboxamide]
Form stability (XRPD) after storage in a sealed vial ([1]; listed as Form 4-bis): complete conversion into Form 1

COCc1ccc(NC(=O)c2c(C#CCN3CCOCC3)n(C3(C)CC3)c3ncnc(N)c23)cc1 [HM06 1:2 HCl Form 6, 4-amino-N-[4-(methoxymethyl)phenyl]-7-(1-methylcyclopropyl)-6-(3-morpholinoprop-1-yn-1-yl)-7H-pyrrolo[2,3-d]pyrimidine-5-carboxamide]
Form stability on storage ([1]; 6 days of storage, room temperature under low pressure): conversion into Form 1

COCc1ccc(NC(=O)c2c(C#CCN3CCOCC3)n(C3(C)CC3)c3ncnc(N)c23)cc1 [HM06 1:2 HCl Form 1, 4-amino-N-[4-(methoxymethyl)phenyl]-7-(1-methylcyclopropyl)-6-(3-morpholinoprop-1-yn-1-yl)-7H-pyrrolo[2,3-d]pyrimidine-5-carboxamide]
HPLC assay (anhydrous) ([3]; 0 months): 99%
HPLC purity: 12-HM06 ([3]; 0 months): 99%
HPLC purity: impurity 12-HM06.il (RRT 0.92-.94) ([3]; 0 months): 0.51%
HPLC purity: impurity RRT 0.56 ([3]; 0 months): not detected
HPLC purity: impurity RRT 1.11 ([3]; 0 months): not detected
HPLC purity: impurity RRT 1.20-1.24 ([3]; 0 months): 0.20%
HPLC purity: impurity RRT 1.41-1.42 ([3]; 0 months): 0.06%
Water content (KF) ([3]; 0 months): 6%
XRPD ([3]; 0 months): Crystalline
HPLC assay (anhydrous) ([3]; 1 month): 100%
HPLC purity: 12-HM06 ([3]; 1 month): 99%
HPLC purity: impurity 12-HM06.il (RRT 0.92-.94) ([3]; 1 month): 0.51%
HPLC purity: impurity RRT 0.56 ([3]; 1 month): not detected
HPLC purity: impurity RRT 1.11 ([3]; 1 month): not detected
HPLC purity: impurity RRT 1.20-1.24 ([3]; 1 month): 0.20%
HPLC purity: impurity RRT 1.41-1.42 ([3]; 1 month): 0.06%
Water content (KF) ([3]; 1 month): 6%
XRPD ([3]; 1 month): Crystalline
HPLC assay (anhydrous) ([3]; 3 months): 102%
HPLC purity: 12-HM06 ([3]; 3 months): 99%
HPLC purity: impurity 12-HM06.il (RRT 0.92-.94) ([3]; 3 months): 0.51%
HPLC purity: impurity RRT 0.56 ([3]; 3 months): not detected
HPLC purity: impurity RRT 1.11 ([3]; 3 months): not detected
HPLC purity: impurity RRT 1.20-1.24 ([3]; 3 months): 0.20%
HPLC purity: impurity RRT 1.41-1.42 ([3]; 3 months): 0.06%
Water content (KF) ([3]; 3 months): 5%
XRPD ([3]; 3 months): Crystalline
HPLC assay (anhydrous) ([3]; 6 months): 98%
HPLC purity: 12-HM06 ([3]; 6 months): 99%
HPLC purity: impurity 12-HM06.il (RRT 0.92-.94) ([3]; 6 months): 0.51%
HPLC purity: impurity RRT 0.56 ([3]; 6 months): 0.05%
HPLC purity: impurity RRT 1.11 ([3]; 6 months): 0.05%
HPLC purity: impurity RRT 1.20-1.24 ([3]; 6 months): 0.19%
HPLC purity: impurity RRT 1.41-1.42 ([3]; 6 months): 0.06%
Water content (KF) ([3]; 6 months): 5%
XRPD ([3]; 6 months): Crystalline
Storage stability, overall result ([3]; accelerated storage conditions and long-term storage): remained stable and crystalline
Concentration of saturated solution in methanol [4]: approx. 50 mg/mL
HPLC assay (anhydrous) ([5]; 0 months): 99%
HPLC purity: 12-HM06 ([5]; 0 months): 99%
HPLC purity: impurity 12-HM06.il (RRT 0.92-0.94) ([5]; 0 months): 0.51%
HPLC purity: impurity RRT 1.20-1.24 ([5]; 0 months): 0.20%
HPLC purity: impurity RRT 1.41-1.42 ([5]; 0 months): 0.06%
Water content (KF) ([5]; 0 months): 6%
XRPD ([5]; 0 months): Crystalline
HPLC assay (anhydrous) ([5]; 3 months): 102%
HPLC purity: 12-HM06 ([5]; 3 months): 99%
HPLC purity: impurity 12-HM06.il (RRT 0.92-0.94) ([5]; 3 months): 0.51%
HPLC purity: impurity RRT 1.20-1.24 ([5]; 3 months): 0.20%
HPLC purity: impurity RRT 1.41-1.42 ([5]; 3 months): 0.06%
Water content (KF) ([5]; 3 months): 5%
XRPD ([5]; 3 months): Crystalline
HPLC assay (anhydrous) ([5]; 6 months): 99%
HPLC purity: 12-HM06 ([5]; 6 months): 99%
HPLC purity: impurity 12-HM06.il (RRT 0.92-0.94) ([5]; 6 months): 0.51%
HPLC purity: impurity RRT 1.20-1.24 ([5]; 6 months): 0.20%
HPLC purity: impurity RRT 1.41-1.42 ([5]; 6 months): 0.06%
Water content (KF) ([5]; 6 months): 5%
XRPD ([5]; 6 months): Crystalline
HPLC assay (anhydrous) ([5]; 9 months): 99%
HPLC purity: 12-HM06 ([5]; 9 months): 99%
HPLC purity: impurity 12-HM06.il (RRT 0.92-0.94) ([5]; 9 months): 0.51%
HPLC purity: impurity RRT 1.20-1.24 ([5]; 9 months): 0.20%
HPLC purity: impurity RRT 1.41-1.42 ([5]; 9 months): 0.06%
Water content (KF) ([5]; 9 months): 5%
XRPD ([5]; 9 months): Crystalline
HPLC assay (anhydrous) ([5]; 12 months): 99%
HPLC purity: 12-HM06 ([5]; 12 months): 99%
HPLC purity: impurity 12-HM06.il (RRT 0.92-0.94) ([5]; 12 months): 0.51%
HPLC purity: impurity RRT 1.20-1.24 ([5]; 12 months): 0.20%
HPLC purity: impurity RRT 1.41-1.42 ([5]; 12 months): 0.06%
Water content (KF) ([5]; 12 months): 6%
XRPD ([5]; 12 months): Crystalline
HPLC assay (anhydrous) ([5]; 18 months): 97%
HPLC purity: 12-HM06 ([5]; 18 months): 99%
HPLC purity: impurity 12-HM06.il (RRT 0.92-0.94) ([5]; 18 months): 0.51%
HPLC purity: impurity RRT 0.85 ([5]; 18 months): 0.05%
HPLC purity: impurity RRT 1.11 ([5]; 18 months): 0.05%
HPLC purity: impurity RRT 1.20-1.24 ([5]; 18 months): 0.19%
HPLC purity: impurity RRT 1.41-1.42 ([5]; 18 months): 0.06%
Water content (KF) ([5]; 18 months): 5%
XRPD ([5]; 18 months): Crystalline
HPLC assay (anhydrous) ([5]; 24 months): 100%
HPLC purity: 12-HM06 ([5]; 24 months): 99%
HPLC purity: impurity 12-HM06.il (RRT 0.92-0.94) ([5]; 24 months): 0.51%
HPLC purity: impurity RRT 0.85 ([5]; 24 months): 0.06%
HPLC purity: impurity RRT 1.20-1.24 ([5]; 24 months): 0.19%
HPLC purity: impurity RRT 1.41-1.42 ([5]; 24 months): 0.06%
Water content (KF) ([5]; 24 months): 6%
XRPD ([5]; 24 months): Crystalline
